Patent US4214093A, “Amino- or guanidino-1,2,3,4-tetrahydro-1-naphthoic esters” (Torii & Co., Ltd., priority 1977, dated 1980)
Where a name gives a salt, the structure may show the parent alone. Read-outs that look alike come from different tables or passages of the source.

Assays:
Format in all cases: biochemical
Human Cl Esterase = target: T1, Human Cl Esterase (Homo sapiens, UniProt P09871); test: Inhibitory effect on ester-hydrolyzing activity of human Cl esterase (ATEe substrate); details: for inhibition at 1000 µM: read-out: Cl-esterase percent inhibition; for inhibitory activity on Cl-esterase: text of Examples; for IC50: pH 7.4, Table 4 bracketed value, read-out: Cl-esterase ID50
T1 sequence (P09871 438-688 limits assumed): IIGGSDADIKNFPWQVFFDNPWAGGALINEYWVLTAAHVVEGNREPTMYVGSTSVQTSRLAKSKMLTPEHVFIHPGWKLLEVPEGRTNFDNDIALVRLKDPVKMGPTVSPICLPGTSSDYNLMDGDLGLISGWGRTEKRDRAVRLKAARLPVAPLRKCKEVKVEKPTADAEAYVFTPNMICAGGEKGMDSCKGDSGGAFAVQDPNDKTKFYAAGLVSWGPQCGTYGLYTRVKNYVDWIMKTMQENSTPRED
T1 sequence (P09871 16-437 partner limits assumed): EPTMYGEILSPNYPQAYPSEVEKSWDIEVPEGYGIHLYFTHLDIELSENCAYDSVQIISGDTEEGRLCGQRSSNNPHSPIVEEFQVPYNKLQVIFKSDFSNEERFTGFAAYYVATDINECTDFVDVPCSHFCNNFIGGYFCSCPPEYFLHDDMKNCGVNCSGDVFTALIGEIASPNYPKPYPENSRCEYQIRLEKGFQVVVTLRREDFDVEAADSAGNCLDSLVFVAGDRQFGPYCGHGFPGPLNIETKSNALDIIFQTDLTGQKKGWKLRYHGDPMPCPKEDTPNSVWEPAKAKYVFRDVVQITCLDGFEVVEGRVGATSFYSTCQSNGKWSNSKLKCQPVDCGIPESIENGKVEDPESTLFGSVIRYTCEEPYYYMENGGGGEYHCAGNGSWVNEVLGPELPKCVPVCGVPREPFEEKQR
Method: It was measured by using 0.1 ml of Cl esterase, 0.1 ml of 0.02 M sodium phosphate buffer solution (pH 7.4 ) and 10 μmoles of ATEe (acetyltyrosine ethyl ester) as substrate following the method described in (1).

Human Plasmin = Human Plasmin (Homo sapiens, UniProt P00747); test: Inhibitory effect on ester-hydrolyzing activity of human plasmin (TAMe substrate); details: for inhibition at 1000 µM: at 10^-3 M, read-out: Plasmin percent inhibition; for inhibition at 1000 µM / IC50: in vitro, TAMe; for inhibitory activity on plasmin: text of Examples; for IC50: Table 4 bracketed value, read-out: Plasmin ID50
Sequence of Human Plasmin (P00747 581-810 limits assumed): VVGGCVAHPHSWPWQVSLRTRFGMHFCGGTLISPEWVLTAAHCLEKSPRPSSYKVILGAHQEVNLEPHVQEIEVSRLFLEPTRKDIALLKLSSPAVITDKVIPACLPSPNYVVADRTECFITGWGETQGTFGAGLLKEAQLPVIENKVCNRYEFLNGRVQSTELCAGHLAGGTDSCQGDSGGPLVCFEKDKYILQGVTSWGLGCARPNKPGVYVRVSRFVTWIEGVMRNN
Sequence of Human Plasmin (P00747 97-580 partner limits assumed): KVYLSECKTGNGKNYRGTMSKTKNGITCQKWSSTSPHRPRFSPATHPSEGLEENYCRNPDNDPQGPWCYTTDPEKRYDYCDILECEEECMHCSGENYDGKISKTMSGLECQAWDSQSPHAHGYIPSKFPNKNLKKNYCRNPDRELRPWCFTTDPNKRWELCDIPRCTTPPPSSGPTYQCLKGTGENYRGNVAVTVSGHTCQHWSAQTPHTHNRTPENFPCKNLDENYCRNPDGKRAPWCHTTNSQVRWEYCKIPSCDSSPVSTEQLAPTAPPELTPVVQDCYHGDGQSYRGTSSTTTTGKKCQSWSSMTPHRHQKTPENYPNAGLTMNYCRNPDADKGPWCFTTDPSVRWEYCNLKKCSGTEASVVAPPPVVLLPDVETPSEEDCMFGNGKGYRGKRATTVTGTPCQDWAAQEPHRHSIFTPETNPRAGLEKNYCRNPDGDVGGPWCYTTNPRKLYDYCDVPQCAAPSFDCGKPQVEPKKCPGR
Method: The enzyme-inhibitory activities in vitro of the compounds of this invention were measured by the following procedure according to the method of M. Muramatsu et al. [[…]. […] After the incubation, 1.5 ml of 2 M alkaline hydroxylamine was added and thoroughly mixed, and allowed to stand at room temperature for 15 minutes. […] It was measured by using 0.1 ml of plasmin (generated by activation of plasminogen with streptokinase) and TAMe as substrate following the method described in (1).

Trypsin = target: T2, Trypsin (Bos taurus, UniProt P00760); test: Inhibitory effect on ester-hydrolyzing activity of trypsin (TAMe substrate); details: for inhibition at 1000 µM: read-out: Trypsin percent inhibition
T2 sequence (P00760 24-246): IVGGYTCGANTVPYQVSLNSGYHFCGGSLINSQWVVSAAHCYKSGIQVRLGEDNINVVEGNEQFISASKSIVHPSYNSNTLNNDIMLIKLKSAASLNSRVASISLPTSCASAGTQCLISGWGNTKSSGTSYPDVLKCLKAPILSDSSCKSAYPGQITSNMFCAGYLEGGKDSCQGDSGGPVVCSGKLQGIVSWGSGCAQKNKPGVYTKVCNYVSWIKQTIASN
Method: (§1) The enzyme-inhibitory activities in vitro of the compounds of this invention were measured by the following procedure according to the method of M. Muramatsu et al. [[…]. […] After the incubation, 1.5 ml of 2 M alkaline hydroxylamine was added and thoroughly mixed, and allowed to stand at room temperature for 15 minutes.

Human Plasma Kallikrein = Human Plasma Kallikrein (Homo sapiens, UniProt P03952); test: Inhibitory effect on ester-hydrolyzing activity of human plasma kallikrein (TAMe substrate); details: for inhibition at 1000 µM: read-out: Kallikrein percent inhibition; for inhibitory activity on kallikrein: text of Examples; for IC50: Table 4 bracketed value, read-out: Kallikrein ID50
Sequence of Human Plasma Kallikrein (P03952 391-638 limits assumed): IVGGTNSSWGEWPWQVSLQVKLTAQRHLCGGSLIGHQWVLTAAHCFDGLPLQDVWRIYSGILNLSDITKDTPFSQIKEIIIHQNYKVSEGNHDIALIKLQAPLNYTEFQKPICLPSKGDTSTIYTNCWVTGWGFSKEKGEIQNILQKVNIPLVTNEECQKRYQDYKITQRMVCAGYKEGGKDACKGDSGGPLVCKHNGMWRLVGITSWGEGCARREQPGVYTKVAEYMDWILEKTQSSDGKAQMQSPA
Sequence of Human Plasma Kallikrein (P03952 20-390 partner limits assumed): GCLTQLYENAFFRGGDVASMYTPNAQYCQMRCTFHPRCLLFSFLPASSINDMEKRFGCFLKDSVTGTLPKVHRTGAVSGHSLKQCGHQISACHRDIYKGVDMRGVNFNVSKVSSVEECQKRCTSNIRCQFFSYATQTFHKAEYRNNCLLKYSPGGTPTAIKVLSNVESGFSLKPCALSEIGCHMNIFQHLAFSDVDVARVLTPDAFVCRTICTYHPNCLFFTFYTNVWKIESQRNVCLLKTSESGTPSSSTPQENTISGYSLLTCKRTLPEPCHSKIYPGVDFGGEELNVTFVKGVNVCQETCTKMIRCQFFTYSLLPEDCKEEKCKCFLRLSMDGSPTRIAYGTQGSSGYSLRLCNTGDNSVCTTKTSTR
Method: as §1

Bovine Thrombin = Bovine Thrombin (Bos taurus, UniProt P00735); test: Inhibitory effect on ester-hydrolyzing activity of bovine thrombin (TAMe substrate); details: for inhibition at 1000 µM: at 10^-3 M, in vitro, TAMe, read-out: Thrombin percent inhibition; for inhibitory activity on thrombin: text of Examples
Method: The enzyme-inhibitory activities in vitro of the compounds of this invention were measured by the following procedure according to the method of M. Muramatsu et al. [M. Muramatsu, T. Onishi, S. Makino, Y. Hayashi and S. Fujii: J. Biochem., 58, 214 (1965)]
To 0.1 ml of trypsin (5 μg/ml) were added 0.5 ml of 0.1 M borate buffer solution (pH 8.6) containing 10 mM CaCl2, and 0.1 ml of a varying concentration of an inhibitor solution, and preincubation was carried out at 37° C. for 5 minutes. Then, 10 μmoles of the substrate, TAMe (tosylarginine methyl ester), was added, and incubation was preformed at 37° C. for 30 minutes.
After the incubation, 1.5 ml of 2 M alkaline hydroxylamine was added and thoroughly mixed, and allowed to stand at room temperature for 15 minutes. Then, 1.0 ml of each of 18% trichloroacetic acid, 4 N HCl and 10% FeCl3 was added and thoroughly mixed. If necessary, the mixture was centrifuged at 3,000 rpm for 10 minutes, and the absorbance of the supernatant was measured at 530 nm.
It was measured by using 0.4 ml of bovine thrombin […], 0.02 M sodium phosphate buffer solution (pH 7.4) and TAMe as substrate following the method described in (1).

[1] = in vitro, TAMe, pH 8.6, 37° C., Table 4 bracketed value, read-out: Trypsin ID50

Compound: CCOC(=O)c1ccc(OC(=O)C2CCCc3c(N)cccc32)cc1.Cl (centres unmarked) [Compound 66, p-ethoxycarbonylphenyl 5-amino-1,2,3,4-tetrahydro-1-naphthoate hydrochloride]
- inhibition at 1000 µM (Human Cl Esterase): < 3.2%
- inhibitory activity on Cl-esterase (Human Cl Esterase): no inhibitory activity
- inhibition at 1000 µM (Human Plasmin): 4.4%
- inhibitory activity on plasmin (Human Plasmin): no inhibitory activity
- IC50 (Trypsin; in vitro, text of Examples, read-out: ID50, tosylarginine methyl ester hydrolyzing activity of trypsin): 88 µM
- inhibition at 1000 µM (Human Plasma Kallikrein; at 10^-3 M, in vitro, TAMe): 19.9%
- inhibitory activity on kallikrein (Human Plasma Kallikrein): no inhibitory activity
- inhibition at 1000 µM (Bovine Thrombin): 16.5%
- inhibitory activity on thrombin (Bovine Thrombin): no inhibitory activity

Compound: CCCCOc1ccc(OC(=O)C2CCCc3c(NC(=N)N)cccc32)cc1 (centres unmarked) [Compound 116]
- IC50 (Human Cl Esterase; in vitro, ATEe): 350 µM
- IC50 (Human Plasmin): 1000 µM
- inhibition at 1000 µM (Trypsin): < 3.2%
- inhibition at 1000 µM (Human Plasma Kallikrein): 29.3%
- IC50 (Bovine Thrombin): 1000 µM

Compound: N=C(N)Nc1ccc2c(c1)C(C(=O)Oc1ccc(OC(=O)C3CCCc4ccc(NC(=N)N)cc43)cc1)CCC2 (centres unmarked) [Compound 160]
- IC50 (Human Cl Esterase; in vitro, ATEe): 430 µM
- IC50 (Human Plasmin): 100 µM
- inhibition at 1000 µM (Trypsin): 40.5%
- IC50 (Human Plasma Kallikrein; in vitro, TAMe): 230 µM
- IC50 (Bovine Thrombin): 54 µM

Compound: Nc1ccc2c(c1)C(C(=O)Oc1ccc(OC(=O)C3CCCc4ccc(N)cc43)cc1)CCC2 (centres unmarked) [Compound 106]
- inhibition at 1000 µM (Human Cl Esterase; at 10^-3 M, in vitro, ATEe): 31%
- inhibition at 1000 µM (Human Plasmin): < 3.2%
- IC50 (Trypsin; [1]): 92 µM
- inhibition at 1000 µM (Human Plasma Kallikrein; at 10^-3 M, in vitro, TAMe): < 3.2%
- inhibition at 1000 µM (Bovine Thrombin): 35%

Compound: NC(=O)COC(=O)c1ccc(OC(=O)C2CCCc3ccc(N)cc32)cc1 (centres unmarked) [Compound 99]
- IC50 (Human Cl Esterase; in vitro, ATEe): 540 µM
- IC50 (Human Plasmin): 300 µM
- IC50 (Trypsin; [1]): 88 µM
- inhibition at 1000 µM (Human Plasma Kallikrein): 17.2%
- IC50 (Bovine Thrombin): 66 µM

Compound: CCCOC(=O)c1ccc(OC(=O)C2CCCc3c(N)cccc32)cc1 (centres unmarked) [Compound 68]
- inhibition at 1000 µM (Human Cl Esterase; at 10^-3 M, in vitro, ATEe): < 3.2%
- inhibition at 1000 µM (Human Plasmin): < 3.2%
- IC50 (Trypsin; [1]): 41 µM
- inhibition at 1000 µM (Bovine Thrombin): < 3.2%

Compound: CN(C)C(=O)COC(=O)CCc1ccc(OC(=O)C2CCCc3ccc(N)cc32)cc1 (centres unmarked) [Compound 103]
- inhibition at 1000 µM (Human Cl Esterase): 27.2%
- inhibition at 1000 µM (Human Plasmin): 21.5%
- IC50 (Trypsin; [1]): 78 µM
- inhibition at 1000 µM (Human Plasma Kallikrein; at 10^-3 M, in vitro, TAMe): 13.3%
- IC50 (Bovine Thrombin): 1000 µM

Compound: CN(C)C(=O)COC(=O)c1ccc(OC(=O)C2CCCc3c(N)cccc32)cc1 (centres unmarked) [Compound 72]
- inhibition at 1000 µM (Human Cl Esterase): < 3.2%
- inhibition at 1000 µM (Human Plasmin): < 3.2%
- IC50 (Trypsin; [1]): 25 µM
- IC50 (Human Plasma Kallikrein; in vitro, TAMe): 1000 µM
- IC50 (Bovine Thrombin): 120 µM

Compound: N#Cc1ccc(OC(=O)C2CCCc3ccc(NC(=N)N)cc32)cc1 (centres unmarked) [Compound 163]
- IC50 (Human Cl Esterase; in vitro, ATEe): 400 µM
- IC50 (Human Plasmin): 73 µM
- IC50 (Trypsin; [1]): 130 µM
- IC50 (Human Plasma Kallikrein; in vitro, TAMe): 52 µM
- IC50 (Bovine Thrombin): 17 µM

Compound: CN(C)C(=O)COC(=O)CCc1ccc(OC(=O)C2CCCc3ccc(NC(=N)N)cc32)cc1 (centres unmarked) [Compound 158]
- IC50 (Human Cl Esterase; in vitro, ATEe): 700 µM
- IC50 (Human Plasmin): 400 µM
- inhibition at 1000 µM (Trypsin): 29.1%
- IC50 (Human Plasma Kallikrein; in vitro, TAMe): 420 µM
- IC50 (Bovine Thrombin): 100 µM

Compound: Cl.Nc1ccc2c(c1)C(C(=O)Oc1ccc(Cl)cc1)CCC2 (centres unmarked) [Compound 83, p-chlorophenyl 7-amino-1,2,3,4-tetrahydro-1-naphthoate hydrochloride]
- inhibitory activity on Cl-esterase (Human Cl Esterase): no inhibitory action
- inhibitory activity on plasmin (Human Plasmin): no inhibitory action
- inhibitory activity on kallikrein (Human Plasma Kallikrein): no inhibitory action
- inhibitory activity on thrombin (Bovine Thrombin): no inhibitory action

Compound: COC(=O)c1ccc(OC(=O)C2CCCc3c(N)cccc32)cc1 (centres unmarked) [Compound 63]
- inhibition at 1000 µM (Human Cl Esterase): 16.5%
- inhibition at 1000 µM (Human Plasmin): 35%
- IC50 (Trypsin; [1]): 18 µM
- IC50 (Bovine Thrombin): 1000 µM

Compound: CCCOC(=O)c1ccc(OC(=O)C2CCCc3c(NC(=N)N)cccc32)cc1 (centres unmarked) [Compound 123]
- IC50 (Human Cl Esterase; in vitro, ATEe): 350 µM
- IC50 (Human Plasmin): 900 µM
- inhibition at 1000 µM (Trypsin; at 10^-3 M, in vitro, TAMe): 45.7%
- inhibition at 1000 µM (Bovine Thrombin): 46.7%

Compound: CCCOC(=O)c1ccc(OC(=O)C2CCCc3ccc(NC(=N)N)cc32)cc1 (centres unmarked) [Compound 151]
- IC50 (Human Cl Esterase; in vitro, ATEe): 330 µM
- IC50 (Human Plasmin): 480 µM
- IC50 (Trypsin; [1]): 100 µM
- IC50 (Bovine Thrombin): 42 µM

Compound: CCOC(=O)c1ccc(OC(=O)C2CCCc3c(NC(=N)N)cccc32)cc1 (centres unmarked) [Compound 121, ethoxycarbonylphenyl 5-guanidino-1,2,3,4-tetrahydro-1-naphthoate hydrochloride]
- IC50 (Trypsin; Example 6, read-out: ID50, tosylarginine methyl ester hydrolyzing activity of trypsin (unit inferred)): 74 µM

Compound: CCCOC(=O)c1ccc(OC(=O)C2CCCc3ccc(N)cc32)cc1 (centres unmarked) [Compound 96]
- inhibition at 1000 µM (Human Cl Esterase; at 10^-3 M, in vitro, ATEe): < 3.2%
- inhibition at 1000 µM (Human Plasmin): < 3.2%
- IC50 (Trypsin; [1]): 68 µM
- inhibition at 1000 µM (Bovine Thrombin): 25.1%
